Consider four compounds from paper doi:10.1101/2024.03.08.584059, “AllTheBacteria: a community resource empowers biology and discovers novel peptide antibiotics” (bioRxiv, 2026).

In brackets after ≈: the same amount, converted by molar mass. Ends that are not written are not given here.

In data set [1] the test system is 20 clinically relevant Gram-negative and Gram-positive bacterial strains. The data set can be described thus: Antibacterial profiling across the panel. It is filed as cell-based. Conditions: in words; 20-strain MIC panel. An excerpt: We first compared the predicted AllTheBacteria (here abbreviated ATB) peptides with antimicrobial peptides curated in widely used databases (see Supp. Note 3, Supp. Figs 10-13). ATB peptides were enriched in basic residues, particularly lysine and arginine, and many also contained hydrophobic or aromatic residues, including leucine, isoleucine, and tryptophan. These features are consistent with electrostatic engagement of bacterial envelopes and potential membrane interaction. From this prioritized pool, we selected 24 peptides (Supp. Table 1) for chemical synthesis and experimental validation. The selected panel included highly cationic low-complexity sequences, mixed hydrophobic–cationic architectures and tryptophan-rich motifs, allowing us to test whether distinct classes of ATB-derived encrypted peptides translate into antibacterial activity. The 24 synthesized peptides were profiled against 20 clinically relevant Gram-negative and Gram-positive bacterial strains, including antibiotic-resistant ones (Fig. 4). Antibacterial activity was most pronounced against Gram-negative species, including Acinetobacter baumannii, Escherichia coli, Enterobacter cloacae, Klebsiella pneumoniae, and Pseudomonas aeruginosa.
Figure 4. […] Bacterial growth was assessed by measuring the optical density at 600 nm in a microplate reader one day post-treatment.

Data set [2] has as its system human embryonic kidney (HEK293T) cells. The following applies: 24 h. Here is the method:
The cells were cultured in high-glucose Dulbecco’s modified Eagle’s medium supplemented with 1% penicillin and streptomycin (antibiotics) and 10% fetal bovine serum and grown at 37 °C in a humidified atmosphere containing 5% CO2.
One day prior to the experiment, 100 μL aliquots of human embryonic kidney (HEK293T) cells, at a concentration of 50,000 cells per mL, were seeded into each well of 96-well plates (5,000 cells per well). Following cell attachment, the HEK293T cells were treated with increasing concentrations of peptides (ranging from 8 to 128 μmol L^−1) and incubated for 24 h. After the exposure period, cytotoxicity was assessed using the 3-(4,5-dimethylthiazol-2-yl)-2,5-diphenyltetrazolium bromide (MTT) assay. Specifically, the MTT reagent was prepared at a concentration of 0.5 mg mL^−1 in phenol red-free medium and used to replace the peptide-containing supernatants (100 μL per well). The plates were then incubated for 4 h at 37 °C in a humidified atmosphere with 5% CO2, facilitating the formation of insoluble formazan crystals. These crystals were subsequently dissolved in 0.04 mol L^−1 hydrochloric acid prepared in anhydrous isopropanol. Absorbance was measured at 570 nm using a spectrophotometer to quantify cell viability. All experiments were conducted in triplicate (three biological replicates).
To evaluate the safety profile of the ATB peptides, we measured their cytotoxicity against human embryonic kidney (HEK293T) cells using a 3-(4,5-dimethylthiazol-2-yl)-2,5-diphenyltetrazolium bromide (MTT) viability assay and determined half-maximal cytotoxic concentrations (CC50). […]
index as the ratio CC50 (HEK293T) / MIC against A. baumannii ATCC 19606.

In a further data set the test system is E. coli isolates. The following applies: strain not named. The method, then:
(§1) Figure 4. […] Briefly, 10[5] bacterial cells were incubated with serially diluted peptides (0–64 μmol L^−1) at 37 °C. Bacterial growth was assessed by measuring the optical density at 600 nm in a microplate reader one day post-treatment.

The subject of data set [3] is A. baumannii ATCC 19606. As to the kind of experiment: Skin abscess infection mouse model. Type of data set: in vivo, Acinetobacter baumannii. The following applies: CD-1 mice; for reduction of bacterial burden relative to untreated controls: single topical dose at 10×MIC. The method, then:
(§2) Figure 5. Anti-infective activity of a lead ATB peptide in a murine infection model. […] The limit of detection (LOD) for the CFU quantification is log10 CFU = 2. Bacterial burdens are shown as violin plots with individual data points overlaid; each point represents one animal. The horizontal line within each violin indicates the mean, and violin width reflects the distribution of values within each group. Statistical comparisons were performed separately for each time point using ordinary one-way ANOVA followed by Dunnett’s two-sided multiple comparisons test versus the control group. Exact p-values are shown above the indicated comparisons. (Panel a created in BioRender.)
(§3) The back of six-week-old female CD-1 mice under anesthesia were shaved and injured with a superficial linear skin abrasion made with a needle. An aliquot of A. baumannii ATCC 19606 (1.1×10^6 CFU mL^−1; […]) previously grown in LB medium until 0.5 OD mL^−1 (optical value at 600 nm) and then washed twice with sterile PBS (pH 7.4, 9,391 ģ for 3 min) was added to the scratched area. […] Two- and four-days post-infection, animals were euthanized, and a uniform excision of the scarified skin was excised, homogenized using a bead beater (25 Hz for 20 min), 10-fold serially diluted, and plated on McConkey agar plates for CFU quantification. The experiments were performed using six mice per group. Mice were single-housed to avoid cross-contamination and maintained under a 12-hour light/dark cycle at 22 °C with humidity controlled at 50%. The skin abscess infection mouse model was revised and approved by the University Laboratory Animal Resources (ULAR) from the University of Pennsylvania (Protocol 806763).
In the mouse experiments, all the raw data were log10 transformed and the statistical significance was determined using one-way ANOVA followed by Dunnett’s test. All the p values are shown for each of the groups, all groups were compared to the untreated control group. […] Statistical significance between different groups was calculated using the tests indicated in each figure legend. […]

The nature of data set [4]: Mouse weight monitoring in skin abscess model. Type of data set: in vivo. The following applies: CD-1 mice, 4 days total, single topical dose at 10×MIC, in words. The method, then: as §2
as §3, with “Mice were single-housed to avoid cross-contamination and maintained under a 12-hour light/dark cycle at 22 °C with humidity controlled at 50%. The skin abscess infection mouse model was revised and approved by the University Laboratory Animal Resources (ULAR) from the University of Pennsylvania (Protocol 806763).” left out

Data set [5] concerns E. faecalis ATCC 700802 (VRE). As to the kind of experiment: MIC, broth microdilution. Conditions: Enterococcus faecalis, 24 h, Fig. 4 heat map, vancomycin-resistant, LB, 0–64 μmol L^−1, 37 °C, one day, OD600, mode of replicates, read-out: Minimal Inhibitory Concentration, E. faecalis ATCC 700802 - VRE (+). It is filed as cell-based. The method, then:
as §1
(In general: In broth dilution the organism is exposed to a series of concentrations in liquid medium.)

The next data set has as its system B. subtilis ATCC 23857. The data set can be described thus: MIC, broth microdilution. Type of data set: cell-based. Conditions: Bacillus subtilis, ATCC23857, 24 h, Fig. 4 heat map, LB, 0–64 μmol L^−1, 37 °C, one day, OD600, mode of replicates, read-out: Minimal Inhibitory Concentration, B. subtilis ATCC 23857 (+). Here is the method:
as §1

The subject of another data set is E. coli AIC222. The data set can be described thus: microbe, parasite or virus in culture. It is filed as cell-based. Conditions: Escherichia coli, AIC222, 24 h, read-out: Minimal Inhibitory Concentration, E. coli AIC222 - CRE (-). Here is the method:
as §1

For a further data set, the system named is P. aeruginosa PAO1. The data set can be described thus: microbe, parasite or virus in culture. Conditions: Pseudomonas aeruginosa, PAO1, 24 h, read-out: Minimal Inhibitory Concentration, P. aeruginosa PAO1 (-). The method, then: as §1
A further data set has as its system S. aureus ATCC 12600. As to the kind of experiment: microbe, parasite or virus in culture. The following applies: Staphylococcus aureus, ATCC12600, 24 h, read-out: Minimal Inhibitory Concentration, S. aureus ATCC 12600 (+). The method, then: as §1
In another data set the test system is E. coli ATCC 11775. The data set can be described thus: microbe, parasite or virus in culture. The following applies: Escherichia coli, ATCC11775, 24 h, read-out: Minimal Inhibitory Concentration, E. coli ATCC 11775 (-). The method, then: as §1
A further data set deals with E. cloacae ATCC 13047. As to the kind of experiment: microbe, parasite or virus in culture. The following applies: Enterobacter cloacae, ATCC13047, 24 h, read-out: Minimal Inhibitory Concentration, E. cloacae ATCC 13047 (-). Here is the method:
as §1

A further data set has as its system K. pneumoniae ATCC 13883. As to the kind of experiment: microbe, parasite or virus in culture. Conditions: Klebsiella pneumoniae, ATCC13883, 24 h, read-out: Minimal Inhibitory Concentration, K. pneumoniae ATCC 13883 (-). Here is the method:
as §1

For data set [6], the system named is K. pneumoniae ATCC BAA-2342. The data set can be described thus: microbe, parasite or virus in culture. The following applies: Klebsiella pneumoniae, ATCCBAA2342, 24 h, read-out: Minimal Inhibitory Concentration, K. pneumoniae ATCC BAA-2342 (-) - EIRK. The method, then:
as §1

The next data set has as its system E. coli K-12 BW25113. As to the kind of experiment: microbe, parasite or virus in culture. Conditions: Escherichia coli, BW25113, 24 h, read-out: Minimal Inhibitory Concentration, E. coli K-12 BW25113 (-). Here is the method: as §1
Data set [7] deals with S. enterica Typhimurium ATCC 700720. The data set can be described thus: microbe, parasite or virus in culture. The following applies: Salmonella enterica, ATCC700720|TYPHIMURIUM, 24 h, read-out: Minimal Inhibitory Concentration, S. enterica Typhimurium ATCC 700720. The method, then:
as §1

A further data set relates to E. coli ATCC BAA-3170. The data set can be described thus: microbe, parasite or virus in culture. The following applies: Escherichia coli, ATCCBAA3170, 24 h, read-out: Minimal Inhibitory Concentration, E. coli ATCC BAA-3170 (-) - CRE. Here is the method: as §1
In another data set the test system is P. aeruginosa PA14. The data set can be described thus: microbe, parasite or virus in culture. Conditions: Pseudomonas aeruginosa, PA14, 24 h, read-out: Minimal Inhibitory Concentration, P. aeruginosa PA14 (-). Here is the method: as §1
A further data set deals with S. enterica ATCC 9150. As to the kind of experiment: microbe, parasite or virus in culture. Conditions: Salmonella enterica, ATCC9150, 24 h, read-out: Minimal Inhibitory Concentration, S. enterica ATCC 9150 (-). Here is the method:
as §1

The test system of data set [8] is A. baumannii ATCC BAA-1605. The data set can be described thus: microbe, parasite or virus in culture. The following applies: Acinetobacter baumannii, ATCCBAA1605, 24 h, read-out: Minimal Inhibitory Concentration, A. baumannii ATCC BAA-1605 (-) - CGTPACCIMRA
The method, then: as §1

In data set [9] the test system is S. aureus ATCC BAA-1556 (MRSA). The data set can be described thus: microbe, parasite or virus in culture. The following applies: Staphylococcus aureus, ATCCBAA1556|MRSA, 24 h, read-out: Minimal Inhibitory Concentration, S. aureus ATCC BAA-1556 - MRSA (+). Here is the method:
as §1

In data set [10] the test system is A. baumannii ATCC 19606. The data set can be described thus: microbe, parasite or virus in culture. Conditions: Acinetobacter baumannii, ATCC19606, 24 h, read-out: Minimal Inhibitory Concentration, A. baumannii ATCC 19606 (-). Here is the method: as §1
The subject of a further data set is E. coli AIC221. The data set can be described thus: MIC, broth microdilution. Conditions: Escherichia coli, AIC221, 24 h, read-out: Minimal Inhibitory Concentration, E. coli AIC221 (-). Type of data set: cell-based. Here is the method:
Figure 4. Antimicrobial activity of APEX-predicted AllTheBacteria peptides. Heat map displaying the antimicrobial activities (μmol L^−1) of ATB peptides (rows) against 20 clinically relevant pathogens (columns) , including antibiotic-resistant strains. Briefly, 10[5] bacterial cells were incubated with serially diluted peptides (0–64 μmol L^−1) at 37 °C. Bacterial growth was assessed by measuring the optical density at 600 nm in a microplate reader one day post-treatment.

Turning to “MKKLKIKKLKIKKLKIKKLKIKNLKIKKLKIKNLKI-OH [ATB15]”, in data set [1], the “antibacterial activity across the panel” value is “limited measurable activity”. In addition, the “half-maximal cytotoxic concentration (CC50)” value in data set [2] is 9 to 12 µM.

Turning to “MRRRGWKVRLKRRRGWKVRLMRRRGWKVRLKRRRLVLPVWA-OH [ATB9]”, the “MIC, E. coli” value with E. coli isolates stood at 4 µM.

For “MKLWKIVRFLALSKGAKALRKKPVRKAAASFVKSYALWKYIRRK-OH [ATB20]”, in the data set with A. baumannii ATCC 19606 [3] (single dose at 10xMIC post-infection, compared to untreated control), the “time for which proliferation of the infection was inhibited after treatment” value is listed as “up to 4 days”. The “reduction of bacterial burden relative to untreated controls” value with A. baumannii ATCC 19606 [3] (day 4, n = 6) is reported as ~ 1.5 log; in the data set on A. baumannii ATCC 19606 [3] (two days after infection, n = 6) it was ~ 2 log. The mouse body weight result in data set [4] is on record as “remained stable”.

For `C[C@H]1COc2c(N3CCN(C)CC3)c(F)cc3c(=O)c(C(=O)O)cn1c23` [Levofloxacin], the MIC is 1 µM (≈ 0.361 µg/mL) in data set [5]; 0.1 µM (≈ 0.0361 µg/mL) with B. subtilis ATCC 23857; 0.1 µM (≈ 0.0361 µg/mL) in the data set with E. coli AIC222; 4 µM (≈ 1.45 µg/mL) with P. aeruginosa PAO1; 4 µM (≈ 1.45 µg/mL) with S. aureus ATCC 12600; 0.1 µM (≈ 0.0361 µg/mL) in the data set on E. coli ATCC 11775. Moreover, the MIC in the data set with E. cloacae ATCC 13047 is 0.1 µM (≈ 0.0361 µg/mL); in the data set on K. pneumoniae ATCC 13883, 0.1 µM (≈ 0.0361 µg/mL); in data set [6] it was 0.1 µM (≈ 0.0361 µg/mL); in the data set with E. coli K-12 BW25113, 0.1 µM (≈ 0.0361 µg/mL); in [7] it was 0.5 µM (≈ 0.181 µg/mL); in the data set on E. coli ATCC BAA-3170, 0.1 µM (≈ 0.0361 µg/mL). Besides, the MIC in the data set with P. aeruginosa PA14 is 0.5 µM (≈ 0.181 µg/mL); in the data set with S. enterica ATCC 9150, 0.1 µM (≈ 0.0361 µg/mL); in [8], 64 µM (≈ 23.1 µg/mL); in data set [9], 4 µM (≈ 1.45 µg/mL); in the data set with A. baumannii ATCC 19606 [10], 0.3 µM (≈ 0.108 µg/mL); in the data set on E. coli AIC221, 0.1 µM (≈ 0.0361 µg/mL).
